The target in this assay is Chromaffin cell neuronal nicotinic acetylcholine receptor (Bos taurus) (UniProt Q8SPU6+Q07263+P54131). Nature of the assay: Antagonist activity was determined by inhibition of neuronal nicotine acetylcholine receptor (nAChR)-stimulated catecholamine release in cultured bovine adrenal chromaffin cells. The format is functional. The arrangement: concentration or dose not given beside the values. To be noted: concentration not given here.
Chromaffin cell neuronal nicotinic acetylcholine receptor (Bos taurus), sequence (P54131 whole entry, looked up): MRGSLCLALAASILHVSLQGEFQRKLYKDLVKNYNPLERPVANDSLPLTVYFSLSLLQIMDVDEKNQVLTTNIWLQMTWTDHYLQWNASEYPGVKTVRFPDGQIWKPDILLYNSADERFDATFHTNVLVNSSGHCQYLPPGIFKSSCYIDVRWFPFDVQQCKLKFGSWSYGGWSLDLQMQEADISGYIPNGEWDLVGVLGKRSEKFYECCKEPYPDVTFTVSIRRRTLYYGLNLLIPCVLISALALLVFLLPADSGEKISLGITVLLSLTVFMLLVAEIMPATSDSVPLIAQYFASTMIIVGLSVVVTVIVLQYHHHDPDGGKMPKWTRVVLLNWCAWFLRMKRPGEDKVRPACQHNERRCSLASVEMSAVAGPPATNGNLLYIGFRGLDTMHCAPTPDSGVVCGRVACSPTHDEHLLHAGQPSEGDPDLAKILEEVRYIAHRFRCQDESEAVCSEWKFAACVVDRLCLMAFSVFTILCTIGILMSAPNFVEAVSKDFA
Chromaffin cell neuronal nicotinic acetylcholine receptor (Bos taurus), sequence (Q07263 whole entry, looked up): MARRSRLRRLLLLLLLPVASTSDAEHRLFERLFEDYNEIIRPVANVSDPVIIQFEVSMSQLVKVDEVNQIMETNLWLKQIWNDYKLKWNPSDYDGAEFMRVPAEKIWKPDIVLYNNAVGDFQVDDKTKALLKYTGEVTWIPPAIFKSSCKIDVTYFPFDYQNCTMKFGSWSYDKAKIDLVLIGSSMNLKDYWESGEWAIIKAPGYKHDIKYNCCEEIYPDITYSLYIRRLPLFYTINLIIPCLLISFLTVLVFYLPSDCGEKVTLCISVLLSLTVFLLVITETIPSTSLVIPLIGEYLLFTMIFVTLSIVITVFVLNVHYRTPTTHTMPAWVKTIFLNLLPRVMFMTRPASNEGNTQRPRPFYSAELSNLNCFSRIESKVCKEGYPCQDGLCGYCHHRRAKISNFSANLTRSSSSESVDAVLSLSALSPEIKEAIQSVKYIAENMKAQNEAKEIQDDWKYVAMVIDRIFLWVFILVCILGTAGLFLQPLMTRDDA
Chromaffin cell neuronal nicotinic acetylcholine receptor (Bos taurus), sequence (Q8SPU6 whole entry, looked up): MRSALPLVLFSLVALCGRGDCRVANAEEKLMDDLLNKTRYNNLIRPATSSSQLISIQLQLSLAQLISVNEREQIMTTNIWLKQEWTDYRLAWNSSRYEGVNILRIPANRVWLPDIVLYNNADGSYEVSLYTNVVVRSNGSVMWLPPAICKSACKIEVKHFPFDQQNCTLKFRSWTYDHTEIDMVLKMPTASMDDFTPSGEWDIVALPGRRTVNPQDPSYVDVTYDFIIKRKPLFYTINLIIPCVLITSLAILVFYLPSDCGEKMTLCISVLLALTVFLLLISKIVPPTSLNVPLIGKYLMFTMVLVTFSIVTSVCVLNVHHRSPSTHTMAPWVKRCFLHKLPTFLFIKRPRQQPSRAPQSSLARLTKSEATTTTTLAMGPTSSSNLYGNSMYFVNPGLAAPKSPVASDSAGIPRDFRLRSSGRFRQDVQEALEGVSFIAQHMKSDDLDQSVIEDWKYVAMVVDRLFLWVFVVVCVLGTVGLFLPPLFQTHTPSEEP

In general, inhibition refers to the share of the control response that was lost under treatment. For `CC(C)N1CCCC(COC(=O)c2ccccc2N2C(=O)CCC2=O)C1` (centres undefined), the inhibition turned out to be 36.4%. `CCN1CCCC(COC(=O)c2ccccc2N2C(=O)CC(C)C2=O)C1` (centres undefined) had an inhibition of 33.5%.

As to `CC1CC(=O)N(c2ccccc2C(=O)OCC2CCCN(C)C2)C1=O` (centres undefined), the inhibition turned out to be 30.1%. The compound `CC1CC(=O)N(c2ccccc2C(=O)OCC2CCCN(CCCc3ccccc3)C2)C1=O` (centres undefined) showed an inhibition of 86.3%. For the compound `CCN1C[C@]2(COC(=O)c3ccccc3N3C(=O)C[C@H](C)C3=O)CC[C@H](OC)[C@@]34[C@@H]5C[C@H]6[C@H](OC)[C@@H]5[C@](O)(C[C@@H]6OC)[C@](O)([C@@H](OC)[C@H]23)[C@@H]14`, the inhibition is 95.2%. On to `CC1CC(=O)N(c2ccccc2C(=O)OCC2CCCN(C(C)C)C2)C1=O` (centres undefined), for which the inhibition turned out to be 56.5%. Under `CCCCN1CCCC(COC(=O)c2ccccc2N2C(=O)CCC2=O)C1` (centres undefined) stands 38.4%. Under `CCOCCN1CCCC(COC(=O)c2ccccc2N2C(=O)CC(C)C2=O)C1` (centres undefined) stands 45.9%. Take `CC1CC(=O)N(c2ccccc2C(=O)OCC2CCCN(CCc3ccccc3)C2)C1=O` (centres undefined): the inhibition is 37%.

For the origin of these results see ChEMBL document CHEMBL1131827, “Ring E analogs of methyllycaconitine (MLA) as novel nicotinic antagonists” (Bioorg Med Chem Lett, 1999).
